Experimental data taken from patent US11365188B2, “JAK inhibitors” (priority 2018, dated 2022).

What was measured:
Type in all cases: biochemical
JAK1 = JAK1 (Homo sapiens, UniProt P23458); experiment: JAK Kinase Assay (JAK1, Caliper EZ Reader, fluoresceinated peptide); conditions: ATP 76.5 μM; JAK1 10 nM; 120 minutes at room temperature; read-out: JAK1 inhibition
Experimental: JAK Kinase Assay 384-well plates in the left foot butoxy measured progress. The final assay volume was 25 μL, 250 nL 100× compounds, 10 μL enzyme mix and 15 μL substrate mix (fluoresceinated peptide and ATP) in assay buffer (20 mM HEPES (pH 7.5), 10 mM MgCl2, […], 0.5 mM EGTA and 2 mM DTT) prepared as test compound. By mixing the JAK1 with substrates and test compounds to start the reaction. There action mixture was incubated for 120 minutes at room temperature, then added 30 μL stop buffer for each sample to terminate the reaction with 50 mM EDTA. After termination of the kinase reaction, the proportion of phosphorylated product was determined as a fraction of total peptide substrate using Caliper EZ Reader II. Inhibition data were calculated by comparison with 100% of the reaction mixture without enzyme inhibition and vehicle-only reaction mixture billion % inhibition compared. The final concentration of reagents in the assays is: ATP, 76.5 μM; JAK1 fluorescent peptide (5-FAM-EEPLYWSFPAKKK-CONH2), 3 μM; JAK1, 10 nM, and DMSO, 1%. Dose response curve were generated to determine the concentration required for IC50 of JAK activity.

JAK2 = JAK2 (Homo sapiens, UniProt O60674); experiment: JAK2 Assay (Caliper EZ Reader, fluoresceinated peptide); conditions: ATP 11.4 μM; JAK2 0.25 nM; 15 minutes at room temperature; read-out: JAK2 inhibition
JAK2, sequence (O60674 whole entry, species assumed): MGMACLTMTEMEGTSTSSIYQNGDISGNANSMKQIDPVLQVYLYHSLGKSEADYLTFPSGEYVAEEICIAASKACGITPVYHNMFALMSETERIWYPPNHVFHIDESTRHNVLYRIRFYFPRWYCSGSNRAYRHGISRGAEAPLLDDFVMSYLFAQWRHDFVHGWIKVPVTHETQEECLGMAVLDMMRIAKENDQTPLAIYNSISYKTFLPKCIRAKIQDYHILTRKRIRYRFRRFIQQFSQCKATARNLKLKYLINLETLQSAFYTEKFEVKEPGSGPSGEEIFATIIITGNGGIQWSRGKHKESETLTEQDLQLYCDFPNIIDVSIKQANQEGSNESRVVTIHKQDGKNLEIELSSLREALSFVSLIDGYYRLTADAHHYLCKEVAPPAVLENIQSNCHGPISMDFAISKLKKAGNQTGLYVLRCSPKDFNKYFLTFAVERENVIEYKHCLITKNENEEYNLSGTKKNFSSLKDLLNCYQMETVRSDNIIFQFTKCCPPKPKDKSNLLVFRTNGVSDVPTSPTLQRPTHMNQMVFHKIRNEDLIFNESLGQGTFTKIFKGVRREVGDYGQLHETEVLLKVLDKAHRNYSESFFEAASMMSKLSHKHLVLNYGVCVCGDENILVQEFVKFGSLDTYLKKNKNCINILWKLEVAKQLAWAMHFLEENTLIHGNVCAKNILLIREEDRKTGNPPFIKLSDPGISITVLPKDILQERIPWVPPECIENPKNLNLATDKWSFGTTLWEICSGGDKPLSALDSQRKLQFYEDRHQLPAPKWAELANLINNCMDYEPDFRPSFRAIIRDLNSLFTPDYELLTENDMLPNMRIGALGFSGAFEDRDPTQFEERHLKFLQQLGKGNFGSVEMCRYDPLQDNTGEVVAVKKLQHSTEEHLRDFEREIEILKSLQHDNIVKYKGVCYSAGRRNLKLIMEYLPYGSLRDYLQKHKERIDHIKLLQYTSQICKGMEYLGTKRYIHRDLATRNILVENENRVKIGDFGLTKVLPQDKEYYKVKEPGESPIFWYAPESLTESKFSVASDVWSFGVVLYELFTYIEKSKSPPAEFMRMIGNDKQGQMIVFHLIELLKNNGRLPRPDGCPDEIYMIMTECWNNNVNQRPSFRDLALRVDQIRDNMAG
Experimental: JAK2 Assay 384-well plates in the left foot butoxy measured progress. The final assay volume was 25 μL, 250 nL 100× compounds, 10 μL enzyme mix and 15 μL substrate mix (fluoresceinated peptide and ATP) in assay buffer (50 mM HEPES (pH 7.5), 10 mM MgCl2, 0.01% TritonX-100, 0.01% Brij35, 0.5 mM EGTA and 2 mM DTT) prepared as test compound By mixing the JAK2 with substrates and test compounds to start the reaction. The reaction mixture was incubated for 15 minutes at room temperature, then added 30 μL stop buffer for each sample to terminate the reaction with 50 mM EDTA. After termination of the kinase reaction, the proportion of phosphorylated product was determined as a fraction of total peptide substrate using Caliper EZ Reader 1 Inhibition data were calculated by comparison with 100% of the reaction mixture without enzyme inhibition and vehicle-only reaction mixture billion % inhibition compared. The final concentration of reagents in the assays is: ATP, 11.4 μM; JAK2 fluorescent peptide (5-FAM-EEPLYWSFPAKKK-CONH2), 3 μM; JAK2, 0.25 nM; and DMSO, 1%. Dose response curve were generated to determine the concentration required for IC50 of JAK2 activity.

JAK3 = target: T1, JAK3 (Homo sapiens, UniProt P52333); experiment: JAK3 Assay (Caliper EZ Reader, fluoresceinated peptide); conditions: ATP 3.5 μM; JAK3 0.5 nM; 30 minutes at room temperature; read-out: JAK3 inhibition
T1 sequence (P52333 1-1124): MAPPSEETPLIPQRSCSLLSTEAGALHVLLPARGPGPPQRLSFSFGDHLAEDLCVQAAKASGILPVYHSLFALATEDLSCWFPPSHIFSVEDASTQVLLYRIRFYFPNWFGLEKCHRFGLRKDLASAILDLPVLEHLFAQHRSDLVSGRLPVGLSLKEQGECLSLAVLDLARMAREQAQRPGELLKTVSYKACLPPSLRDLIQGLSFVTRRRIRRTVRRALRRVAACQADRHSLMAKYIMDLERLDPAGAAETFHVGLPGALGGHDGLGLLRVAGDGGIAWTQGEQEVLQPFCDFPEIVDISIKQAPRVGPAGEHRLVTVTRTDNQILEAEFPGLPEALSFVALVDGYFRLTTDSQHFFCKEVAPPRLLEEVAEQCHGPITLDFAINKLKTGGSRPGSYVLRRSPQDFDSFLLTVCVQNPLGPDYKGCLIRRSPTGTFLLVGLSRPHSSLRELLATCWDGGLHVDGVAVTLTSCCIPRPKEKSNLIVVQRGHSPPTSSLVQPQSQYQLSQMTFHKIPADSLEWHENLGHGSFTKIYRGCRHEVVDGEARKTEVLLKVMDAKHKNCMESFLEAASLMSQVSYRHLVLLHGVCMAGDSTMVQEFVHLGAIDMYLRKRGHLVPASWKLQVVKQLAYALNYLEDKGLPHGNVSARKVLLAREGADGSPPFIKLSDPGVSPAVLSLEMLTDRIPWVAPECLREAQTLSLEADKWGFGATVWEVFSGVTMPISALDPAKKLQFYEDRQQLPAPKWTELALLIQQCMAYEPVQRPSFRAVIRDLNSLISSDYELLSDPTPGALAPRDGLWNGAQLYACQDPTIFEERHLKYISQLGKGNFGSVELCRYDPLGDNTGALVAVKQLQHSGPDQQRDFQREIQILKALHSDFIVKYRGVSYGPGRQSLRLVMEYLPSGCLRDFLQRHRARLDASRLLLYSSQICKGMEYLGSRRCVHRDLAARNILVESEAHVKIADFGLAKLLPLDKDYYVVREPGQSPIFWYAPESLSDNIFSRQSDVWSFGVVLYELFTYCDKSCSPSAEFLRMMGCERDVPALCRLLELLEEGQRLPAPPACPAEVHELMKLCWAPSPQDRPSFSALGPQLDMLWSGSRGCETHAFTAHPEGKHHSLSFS
Experimental: JAK3 Assay 384-well plates in the left foot butoxy measured progress. The final assay volume was 25 μL, 250 nL 100× compounds, 10 μL enzyme mix and 15 μL substrate mix (fluoresceinated peptide and ATP) in assay buffer (50 mM HEPES (pH 7.5), 10 mM MgCl2, 0.01% TritonX-100, 0.01% Brij35, 0.5 mM EGTA and 2 mM DTT) prepared as test compound. By mixing the JAK3 with substrates and test compounds to start the reaction. The reaction mixture was incubated for 30 minutes at room temperature, then added 30 μL stop buffer for each sample to terminate the reaction with 50 mM EDTA. After termination of the kinase reaction, the proportion of phosphorylated product was determined as a fraction of total peptide substrate using Caliper EZ Reader II. Inhibition data were calculated by comparison with 100% of the reaction mixture without enzyme inhibition and vehicle-only reaction mixture billion % inhibition compared. The final concentration of reagents in the assays is: ATP, 3.5 μM; JAK3 fluorescent peptide (5-FAM-EEPLYWSFPAKKK-CONH2), 3 μM; JAK3, 0.5 nM; and DMSO, 1%. Dose response curve were generated to determine the concentration required for IC50 of JAK3 activity.

JAK1, sequence (P23458 whole entry, species assumed): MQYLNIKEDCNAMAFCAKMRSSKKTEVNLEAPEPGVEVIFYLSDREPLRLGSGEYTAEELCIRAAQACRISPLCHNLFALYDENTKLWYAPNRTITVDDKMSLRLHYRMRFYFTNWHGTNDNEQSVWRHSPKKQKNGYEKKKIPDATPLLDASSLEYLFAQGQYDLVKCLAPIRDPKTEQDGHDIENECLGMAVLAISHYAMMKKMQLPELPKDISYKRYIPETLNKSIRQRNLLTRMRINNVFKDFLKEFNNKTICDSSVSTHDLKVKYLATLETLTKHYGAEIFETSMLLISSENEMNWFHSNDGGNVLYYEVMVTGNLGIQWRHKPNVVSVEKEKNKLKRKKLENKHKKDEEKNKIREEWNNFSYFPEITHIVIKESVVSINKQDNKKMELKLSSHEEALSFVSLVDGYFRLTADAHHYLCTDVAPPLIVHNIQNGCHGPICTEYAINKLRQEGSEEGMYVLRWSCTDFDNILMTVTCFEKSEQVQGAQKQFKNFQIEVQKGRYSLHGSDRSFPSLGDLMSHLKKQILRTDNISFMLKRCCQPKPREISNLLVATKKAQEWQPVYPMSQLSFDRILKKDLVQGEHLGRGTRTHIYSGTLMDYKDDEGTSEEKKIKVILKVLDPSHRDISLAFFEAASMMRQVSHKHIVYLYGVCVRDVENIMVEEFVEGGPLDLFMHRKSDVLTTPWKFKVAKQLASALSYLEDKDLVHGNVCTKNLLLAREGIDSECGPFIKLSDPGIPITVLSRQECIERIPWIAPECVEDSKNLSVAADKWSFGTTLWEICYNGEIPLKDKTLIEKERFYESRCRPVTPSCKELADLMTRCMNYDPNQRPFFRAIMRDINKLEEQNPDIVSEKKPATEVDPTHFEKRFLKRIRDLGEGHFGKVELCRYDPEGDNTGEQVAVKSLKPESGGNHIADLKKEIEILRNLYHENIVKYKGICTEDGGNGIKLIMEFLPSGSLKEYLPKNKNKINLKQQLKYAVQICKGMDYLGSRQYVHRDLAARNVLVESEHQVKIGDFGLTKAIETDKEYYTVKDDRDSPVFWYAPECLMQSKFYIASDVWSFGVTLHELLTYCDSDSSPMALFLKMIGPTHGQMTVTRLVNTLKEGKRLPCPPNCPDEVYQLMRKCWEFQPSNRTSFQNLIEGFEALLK

SMILES	IC50 (JAK1)	IC50 (JAK2)	IC50 (JAK3)
C#Cc1ccc(C(=O)N2CC3(CC(N(C)c4ncnc5[nH]ccc45)C3)C2)cc1Cl [Compound 46, (3-chloro-4-ethynylphenyl)(6-(methyl(7H-pyrrolo[2,3-d]pyrimidin-4-yl)amino)-2-azaspiro[3.3]heptan-2-yl)methanone]	≤ 0.01 µM	0.1 to 1 µM	≥ 10 µM
CN(c1ncnc2[nH]ccc12)C1CCC2(CC1)CCN(C(=O)Cc1c[nH]c3ccccc13)CC2 [Compound 93, 2-(1H-Indol-3-yl)-1-{9-[methyl-(7H-pyrrolo[2,3-d]pyrimidin-4-yl)-amino]-3-aza-spiro[5.5]undec-3-yl}-ethanone]	0.1 to 1 µM	0.1 to 1 µM	0.1 to 1 µM
CN(c1ncnc2[nH]ccc12)C1CC2(C1)CN(C(=O)c1cccc(C#N)c1)C2 [Compound 11, 3-(6-(methyl(7H-pyrrolo[2,3-d]pyrimidin-4-yl)amino)-2-azaspiro[3.3]heptane-2-carbonyl)benzonitrile]	0.01 to 0.1 µM	0.1 to 1 µM	1 to 10 µM
CN(c1ncnc2[nH]ccc12)C1CC2(C1)CN(C(=O)CCC(F)(F)F)C2 [Compound 21, 4,4,4-trifluoro-1-(6-(methyl(7H-pyrrolo[2,3-d]pyrimidin-4-yl)amino)-2-azaspiro[3.3]heptan-2-yl)butan-1-one]	0.01 to 0.1 µM	0.1 to 1 µM	1 to 10 µM
CN(c1ncnc2[nH]ccc12)C1CCC2(CC1)CCN(C(=O)CCC(F)(F)F)CC2 [Compound 91, 4,4,4-Trifluoro-1-{9-[methyl-(7H-pyrrolo[2,3-d]pyrimidin-4-yl)-amino]-3-aza-spiro[5.5]undec-3-yl}-butan-1-one]	0.1 to 1 µM	0.1 to 1 µM	1 to 10 µM
CN(c1ncnc2[nH]ccc12)C1CC2(C1)CN(C(=O)c1csc3ccccc13)C2 [Compound 22, benzo[b]thiophen-3-yl(6-(methyl(7H-pyrrolo[2,3-d]pyrimidin-4-yl)amino)-2-azaspiro[3.3]heptan-2-yl)methanone]	0.01 to 0.1 µM	1 to 10 µM	1 to 10 µM
CN(c1ncnc2[nH]ccc12)C1CC2(C1)CN(C(=O)c1cnccn1)C2 [Compound 18, (6-(methyl(7H-pyrrolo[2,3-d]pyrimidin-4-yl)amino)-2-azaspiro[3.3]heptan-2-yl)(pyrazin-2-yl)methanone]	0.1 to 1 µM	1 to 10 µM	≥ 10 µM

Next, values leading:

IC50 (JAK1)	IC50 (JAK2)	IC50 (JAK3)	SMILES
0.1 to 1 µM	0.1 to 1 µM	1 to 10 µM	CCCC(=O)N1CCC2(CCC(N(C)c3ncnc4[nH]ccc34)CC2)CC1 [Compound 100, 1-{9-[Methyl-(7H-pyrrolo[2,3-d]pyrimidin-4-yl)-amino]-3-aza-spiro[5.5]undec-3-yl}-butan-1-one]
0.1 to 1 µM	1 to 10 µM	≥ 10 µM	CN(c1ncnc2[nH]ccc12)C1CC2(C1)CN(C(=O)c1cnn(C3CC3)c1)C2 [Compound 69, (1-Cyclopropyl-1H-pyrazol-4-yl)-{6-[methyl-(7H-pyrrolo[2,3-d]pyrimidin-4-yl)-amino]-2-aza-spiro[3.3]hept-2-yl}-methanone]
≤ 0.01 µM	0.1 to 1 µM	0.1 to 1 µM	COC(=O)N1CCC2(CCC(N(C)c3ncnc4[nH]ccc34)CC2)CC1 [Compound 73, Methyl 9-(methyl(7H-pyrrolo[2,3-d]pyrimidin-4-yl)amino)-3-azaspiro[5.5]undecane-3-carboxylate]
0.1 to 1 µM	≥ 10 µM	≥ 10 µM	CN(c1ncnc2[nH]ccc12)C1CC2(C1)CN(C(=O)c1ccn(C)n1)C2 [Compound 50, (6-(methyl(7H-pyrrolo[2,3-d]pyrimidin-4-yl)amino)-2-azaspiro[3.3]heptan-2-yl)(1-methyl-1H-pyrazol-3-yl)methanone]
0.01 to 0.1 µM	0.1 to 1 µM	0.1 to 1 µM	CN(c1ncnc2[nH]ccc12)C1CCC2(CC1)CCN(C(=O)Cc1ccc(C#N)cc1)CC2 [Compound 85, 4-(2-{9-[Methyl-(7H-pyrrolo[2,3-d]pyrimidin-4-yl)-amino]-3-aza-spiro[5.5]undec-3-yl}-2-oxo-ethyl)-benzonitrile]
0.1 to 1 µM	0.1 to 1 µM	0.1 to 1 µM	CN(c1ncnc2[nH]ccc12)C1CCC2(CC1)CCN(C(=O)c1csc3ccccc13)CC2 [Compound 92, Benzo[b]thiophen-3-yl-{9-[methyl-(7H-pyrrolo[2,3-d]pyrimidin-4-yl)-amino]-3-aza-spiro[5.5]undec-3-yl}-methanone]
0.1 to 1 µM	1 to 10 µM	1 to 10 µM	COC(=O)N1CC2(CC(N(C)c3ncnc4[nH]ccc34)C2)C1 [Compound 7, methyl 6-(methyl(7H-pyrrolo[2,3-d]pyrimidin-4-yl)amino)-2-azaspiro[3.3]heptan-2-carboxylate]
0.1 to 1 µM	0.1 to 1 µM	0.1 to 1 µM	CN(c1ncnc2[nH]ccc12)C1CCC2(CC1)CCN(CC(F)(F)F)CC2 [Compound 79, Methyl-(7H-pyrrolo[2,3-d]pyrimidin-4-yl)-[3-(2,2,2-trifluoro-ethyl)-3-aza-spiro[5.5]undec-9-yl]-amine]
1 to 10 µM	1 to 10 µM	1 to 10 µM	CN(c1ncnc2[nH]ccc12)C1CCC2(CC1)CCN(C(=O)CC#N)CC2 [Compound 104, 3-{9-[Methyl-(7H-pyrrolo[2,3-d]pyrimidin-4-yl)-amino]-3-aza-spiro[5.5]undec-3-yl}-3-oxo-propionitrile]
0.1 to 1 µM	0.1 to 1 µM	1 to 10 µM	Cc1cncc(C(=O)N2CCC3(CCC(N(C)c4ncnc5[nH]ccc45)CC3)CC2)n1 [Compound 90, (6-Methyl-pyrazin-2-yl)-{9-[methyl-(7H-pyrrolo[2,3-d]pyrimidin-4-yl)-amino]-3-aza-spiro[5.5]undec-3-yl}-methanone]
